Data reported in paper PMC8500670, “A selective WDR5 degrader inhibits acute myeloid leukemia in patient-derived mouse models” (Science translational medicine, 2021).
Read-outs that look alike come from different tables or passages of the source.

Key:
Experiment in all cases: biochemical
Design in all cases: protein methyltransferase selectivity panel, enzyme activity relative to DMSO controls, single concentration in duplicate
GLP = target: T1, GLP (Homo sapiens, UniProt Q9H9B1); conditions: Substrate:=Histone H3 1-21
T1 construct: gene EHMT1
T1 sequence (Q9H9B1 1-1298): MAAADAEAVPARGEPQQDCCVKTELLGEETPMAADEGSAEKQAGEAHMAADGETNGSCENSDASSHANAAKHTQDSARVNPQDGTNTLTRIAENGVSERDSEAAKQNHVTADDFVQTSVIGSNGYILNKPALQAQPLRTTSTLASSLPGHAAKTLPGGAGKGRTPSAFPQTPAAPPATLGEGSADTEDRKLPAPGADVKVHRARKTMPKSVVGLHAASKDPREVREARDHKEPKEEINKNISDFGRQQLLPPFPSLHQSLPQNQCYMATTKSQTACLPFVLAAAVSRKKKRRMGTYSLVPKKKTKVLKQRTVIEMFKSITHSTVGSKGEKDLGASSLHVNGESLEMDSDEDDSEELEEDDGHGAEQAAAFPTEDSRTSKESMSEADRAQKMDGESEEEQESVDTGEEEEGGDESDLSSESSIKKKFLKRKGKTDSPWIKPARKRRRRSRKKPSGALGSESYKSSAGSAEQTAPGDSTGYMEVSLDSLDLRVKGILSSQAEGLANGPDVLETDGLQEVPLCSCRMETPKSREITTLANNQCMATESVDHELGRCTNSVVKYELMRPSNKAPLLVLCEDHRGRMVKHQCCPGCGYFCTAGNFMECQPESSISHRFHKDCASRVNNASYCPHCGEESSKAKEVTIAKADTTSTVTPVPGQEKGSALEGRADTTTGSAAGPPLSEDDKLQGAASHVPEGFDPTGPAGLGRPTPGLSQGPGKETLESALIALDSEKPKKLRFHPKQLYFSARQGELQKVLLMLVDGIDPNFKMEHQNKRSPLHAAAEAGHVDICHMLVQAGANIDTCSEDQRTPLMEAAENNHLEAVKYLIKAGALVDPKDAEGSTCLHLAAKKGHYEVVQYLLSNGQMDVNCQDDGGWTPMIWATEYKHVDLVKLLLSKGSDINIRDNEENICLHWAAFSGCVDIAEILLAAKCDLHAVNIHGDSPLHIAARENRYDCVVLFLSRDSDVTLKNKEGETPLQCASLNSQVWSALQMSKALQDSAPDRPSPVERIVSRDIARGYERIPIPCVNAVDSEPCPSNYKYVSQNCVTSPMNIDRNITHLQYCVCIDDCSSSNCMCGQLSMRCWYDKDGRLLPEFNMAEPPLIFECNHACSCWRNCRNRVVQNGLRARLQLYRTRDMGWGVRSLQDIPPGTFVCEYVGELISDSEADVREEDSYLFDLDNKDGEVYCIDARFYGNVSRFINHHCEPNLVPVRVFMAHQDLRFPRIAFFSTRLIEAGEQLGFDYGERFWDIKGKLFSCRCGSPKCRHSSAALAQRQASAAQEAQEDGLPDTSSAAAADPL
Method: (§1) We next assessed selectivity of MS67 against 22 protein methyltransferases (table S2) and a broad panel of common drug targets including 45 kinases (table S3) and 44 G protein–coupled receptors (GPCR), ion channels, and transporters (table S4). […] We subsequently determined that MS67 had moderate binding affinity (Ki = 1.0 ± 0.8 μM) to Sigma 2 receptor (fig. S10).

NSD1 = NSD1 (Homo sapiens, UniProt Q96L73); conditions: Substrate:=Nucleosomes
Chain of NSD1 (Q96L73 whole entry): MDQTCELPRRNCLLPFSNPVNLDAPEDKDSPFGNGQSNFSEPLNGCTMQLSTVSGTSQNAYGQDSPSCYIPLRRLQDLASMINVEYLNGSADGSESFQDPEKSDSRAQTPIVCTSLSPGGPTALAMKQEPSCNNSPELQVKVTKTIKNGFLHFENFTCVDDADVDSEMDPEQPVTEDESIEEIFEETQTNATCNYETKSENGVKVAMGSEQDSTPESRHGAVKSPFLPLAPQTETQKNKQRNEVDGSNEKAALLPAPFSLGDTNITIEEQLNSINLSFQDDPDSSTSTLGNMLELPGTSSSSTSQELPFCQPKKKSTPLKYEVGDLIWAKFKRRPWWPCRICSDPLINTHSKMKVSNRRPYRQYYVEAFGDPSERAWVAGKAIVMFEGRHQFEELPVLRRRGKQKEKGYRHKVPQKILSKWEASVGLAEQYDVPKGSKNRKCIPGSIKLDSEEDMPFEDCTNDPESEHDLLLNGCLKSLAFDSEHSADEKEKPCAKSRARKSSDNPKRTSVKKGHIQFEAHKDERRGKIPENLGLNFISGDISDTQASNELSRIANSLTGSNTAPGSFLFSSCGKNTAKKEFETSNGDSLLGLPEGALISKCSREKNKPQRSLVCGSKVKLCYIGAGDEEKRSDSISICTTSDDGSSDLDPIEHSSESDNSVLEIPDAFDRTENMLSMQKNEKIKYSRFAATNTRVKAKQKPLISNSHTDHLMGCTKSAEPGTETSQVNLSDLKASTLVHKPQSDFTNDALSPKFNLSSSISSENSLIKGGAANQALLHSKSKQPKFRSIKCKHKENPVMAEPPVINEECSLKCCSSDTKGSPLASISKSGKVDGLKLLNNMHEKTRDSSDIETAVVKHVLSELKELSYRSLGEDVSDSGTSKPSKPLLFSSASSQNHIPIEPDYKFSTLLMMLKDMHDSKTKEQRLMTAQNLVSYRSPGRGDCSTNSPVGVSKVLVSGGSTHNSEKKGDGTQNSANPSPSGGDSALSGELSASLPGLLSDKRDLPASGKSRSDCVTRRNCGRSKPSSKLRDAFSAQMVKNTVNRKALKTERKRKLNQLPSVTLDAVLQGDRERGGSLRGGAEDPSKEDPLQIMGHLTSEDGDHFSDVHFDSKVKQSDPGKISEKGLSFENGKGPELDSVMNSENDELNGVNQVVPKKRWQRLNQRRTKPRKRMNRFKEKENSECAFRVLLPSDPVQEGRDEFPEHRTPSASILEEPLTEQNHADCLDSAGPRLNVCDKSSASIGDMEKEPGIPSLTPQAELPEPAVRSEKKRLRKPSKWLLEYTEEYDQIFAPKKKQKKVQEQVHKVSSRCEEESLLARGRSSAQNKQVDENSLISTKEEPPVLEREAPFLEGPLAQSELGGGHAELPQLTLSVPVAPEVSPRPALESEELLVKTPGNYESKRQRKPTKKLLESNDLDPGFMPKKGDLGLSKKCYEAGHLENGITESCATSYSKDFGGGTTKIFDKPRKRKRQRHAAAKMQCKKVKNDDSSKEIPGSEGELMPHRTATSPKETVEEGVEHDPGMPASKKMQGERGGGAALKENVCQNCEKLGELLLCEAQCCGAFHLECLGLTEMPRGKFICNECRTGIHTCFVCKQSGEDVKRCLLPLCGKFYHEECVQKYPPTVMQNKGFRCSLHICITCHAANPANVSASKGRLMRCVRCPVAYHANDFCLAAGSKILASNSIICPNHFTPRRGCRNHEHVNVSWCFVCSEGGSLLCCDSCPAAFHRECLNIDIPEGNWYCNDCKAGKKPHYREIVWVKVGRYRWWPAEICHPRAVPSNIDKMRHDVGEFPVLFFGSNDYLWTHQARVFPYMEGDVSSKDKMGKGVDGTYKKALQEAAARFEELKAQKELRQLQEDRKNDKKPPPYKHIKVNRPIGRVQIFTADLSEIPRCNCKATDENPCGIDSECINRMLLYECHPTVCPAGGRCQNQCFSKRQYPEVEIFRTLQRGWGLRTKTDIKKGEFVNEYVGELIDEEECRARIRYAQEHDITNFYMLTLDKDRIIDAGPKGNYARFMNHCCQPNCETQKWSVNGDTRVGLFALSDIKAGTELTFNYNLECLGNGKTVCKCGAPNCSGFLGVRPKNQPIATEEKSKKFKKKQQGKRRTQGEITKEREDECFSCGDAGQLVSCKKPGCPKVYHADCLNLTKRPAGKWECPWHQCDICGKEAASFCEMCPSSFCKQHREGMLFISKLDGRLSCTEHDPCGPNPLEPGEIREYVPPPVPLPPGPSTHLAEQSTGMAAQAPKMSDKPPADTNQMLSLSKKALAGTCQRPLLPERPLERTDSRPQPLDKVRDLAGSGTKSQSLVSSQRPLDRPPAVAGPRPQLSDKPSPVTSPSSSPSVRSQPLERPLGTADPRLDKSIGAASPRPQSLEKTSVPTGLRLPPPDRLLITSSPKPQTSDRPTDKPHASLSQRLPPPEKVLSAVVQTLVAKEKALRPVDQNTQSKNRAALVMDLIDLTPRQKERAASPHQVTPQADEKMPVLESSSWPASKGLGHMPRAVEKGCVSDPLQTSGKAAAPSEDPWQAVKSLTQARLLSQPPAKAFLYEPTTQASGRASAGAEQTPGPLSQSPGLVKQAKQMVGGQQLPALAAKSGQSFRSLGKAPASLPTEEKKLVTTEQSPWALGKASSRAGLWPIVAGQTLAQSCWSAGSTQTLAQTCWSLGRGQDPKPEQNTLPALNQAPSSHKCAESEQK
Method: as §1

SUV39H1 = target: T2, SUV39H1 (Homo sapiens, UniProt O43463); conditions: Substrate:=Histone H3
T2 sequence (O43463 1-412): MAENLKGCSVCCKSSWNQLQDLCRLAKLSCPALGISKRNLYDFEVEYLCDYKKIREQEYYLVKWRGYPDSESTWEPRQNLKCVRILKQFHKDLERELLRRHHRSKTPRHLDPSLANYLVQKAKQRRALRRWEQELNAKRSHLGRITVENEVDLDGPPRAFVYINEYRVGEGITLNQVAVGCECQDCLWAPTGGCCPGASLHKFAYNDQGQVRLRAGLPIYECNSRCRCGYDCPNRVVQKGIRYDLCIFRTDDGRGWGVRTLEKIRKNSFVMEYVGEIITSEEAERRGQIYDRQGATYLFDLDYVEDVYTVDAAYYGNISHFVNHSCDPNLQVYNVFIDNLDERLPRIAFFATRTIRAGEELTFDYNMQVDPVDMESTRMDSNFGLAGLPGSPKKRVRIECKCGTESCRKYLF
Method: as §1

DOT1L = DOT1L (Homo sapiens, UniProt Q8TEK3); conditions: Substrate:=Nucleosomes
Chain of DOT1L (Q8TEK3 whole entry): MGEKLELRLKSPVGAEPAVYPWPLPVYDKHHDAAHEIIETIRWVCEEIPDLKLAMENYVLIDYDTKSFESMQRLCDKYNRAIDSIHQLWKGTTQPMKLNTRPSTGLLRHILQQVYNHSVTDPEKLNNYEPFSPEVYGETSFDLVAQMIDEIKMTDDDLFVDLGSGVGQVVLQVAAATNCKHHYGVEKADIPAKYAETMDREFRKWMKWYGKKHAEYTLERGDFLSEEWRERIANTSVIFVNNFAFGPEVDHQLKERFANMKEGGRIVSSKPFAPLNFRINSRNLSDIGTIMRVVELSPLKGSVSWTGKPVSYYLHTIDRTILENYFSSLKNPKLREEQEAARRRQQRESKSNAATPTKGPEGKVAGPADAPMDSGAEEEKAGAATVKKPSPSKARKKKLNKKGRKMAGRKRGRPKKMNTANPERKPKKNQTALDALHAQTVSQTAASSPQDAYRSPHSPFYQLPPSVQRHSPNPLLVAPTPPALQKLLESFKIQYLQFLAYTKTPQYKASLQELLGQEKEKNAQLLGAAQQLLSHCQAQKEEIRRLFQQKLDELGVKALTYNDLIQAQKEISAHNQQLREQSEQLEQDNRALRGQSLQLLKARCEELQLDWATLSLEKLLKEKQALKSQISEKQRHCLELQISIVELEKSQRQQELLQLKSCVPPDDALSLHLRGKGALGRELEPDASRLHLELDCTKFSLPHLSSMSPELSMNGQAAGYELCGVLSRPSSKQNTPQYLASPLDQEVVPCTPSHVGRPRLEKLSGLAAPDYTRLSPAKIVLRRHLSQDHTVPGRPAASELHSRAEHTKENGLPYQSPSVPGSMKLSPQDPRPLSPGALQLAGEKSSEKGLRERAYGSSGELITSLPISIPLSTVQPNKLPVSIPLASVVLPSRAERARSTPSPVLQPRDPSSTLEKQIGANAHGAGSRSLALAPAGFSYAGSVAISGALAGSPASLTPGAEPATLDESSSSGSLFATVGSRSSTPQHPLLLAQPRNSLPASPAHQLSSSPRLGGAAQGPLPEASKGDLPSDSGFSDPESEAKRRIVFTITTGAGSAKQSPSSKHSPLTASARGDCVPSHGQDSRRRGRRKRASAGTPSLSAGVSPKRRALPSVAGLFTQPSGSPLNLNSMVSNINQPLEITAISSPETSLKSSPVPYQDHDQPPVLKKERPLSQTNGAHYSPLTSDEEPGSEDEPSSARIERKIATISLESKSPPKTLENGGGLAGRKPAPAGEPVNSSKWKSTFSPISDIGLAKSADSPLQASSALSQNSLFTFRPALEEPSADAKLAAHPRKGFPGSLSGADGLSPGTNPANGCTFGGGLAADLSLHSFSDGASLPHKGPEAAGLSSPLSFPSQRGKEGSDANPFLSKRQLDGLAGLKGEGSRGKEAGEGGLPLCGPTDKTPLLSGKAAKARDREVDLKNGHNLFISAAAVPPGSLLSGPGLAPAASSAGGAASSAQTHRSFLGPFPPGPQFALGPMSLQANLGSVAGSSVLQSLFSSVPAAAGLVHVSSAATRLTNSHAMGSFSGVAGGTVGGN
Method: as §1

[1] = read-out: Enzyme % Activity (relative to DMSO controls) / MS67 / 10 / Data 1:
[2] = read-out: Enzyme % Activity (relative to DMSO controls) / MS67 / 10 / Data 2:

Compound Cc1ncsc1-c1ccc([C@H](C)NC(=O)[C@@H]2C[C@@H](O)CN2C(=O)[C@@H](NC(=O)CNC(=O)c2ccc(F)c(-c3ccc(N4C[C@@H](C)N(C)[C@@H](C)C4)c(NC(=O)c4c[nH]c(=O)cc4C(F)(F)F)c3)c2)C(C)(C)C)cc1 [MS67] has a remaining activity at 10 µM (GLP; [1]) of 93.6%, a remaining activity at 10 µM (GLP; [2]) of 92.2% and a remaining activity at 10 µM (NSD1; [1]) of 111%. The remaining activity at 10 µM (NSD1; [2]) was 107%, the remaining activity at 10 µM (SUV39H1; [1]) was 96% and the remaining activity at 10 µM (SUV39H1; [2]) was 105%. It also gave a remaining activity at 10 µM (DOT1L; [1]) of 95.8% and a remaining activity at 10 µM (DOT1L; [2]) of 92.3%.
